Laboratory results published in patent publication US20090247616A1, “USE OF BENZO-FUSED HETEROCYLE SULFAMIDE DERIVATIVES FOR THE TREATMENT OF ANXIETY” (priority 2008, published 2009).

What was measured:
[1] = system: mouse; test: Four Plate Test, Mouse; format: in vivo; details: 32 mg/kg p.o. (positive control)
Source text: The Four Plate assay was run according to the procedure as described by Aron et al (Neuropharmacology, 10, 459-469, 1971). In this assay, the rodent experiences an electric shock upon crossing from one plate to another. Anxiolytics (such as benzodiazepines) increase the number of punished crossings.
Animals were placed individually in a white plastic enclosure containing a floor consisting of 4 metal plates connected to an electric shock generator (Apelex: Type 011346). The mouse was left to explore freely for 15 seconds. Then, every time the mouse crossed from one plate to another, it received a weak electric shock (2.5 mA, 1.5 s). The number of punished crossings were counted during a 1 minute test. Ten (10) mice were used for each study group. The test was performed blind.
Compound #8 was evaluated at 30 mg/kg, 60 mg/kg and 120 mg/kg doses, administered p.o. 60 minutes before the test, and compared with a vehicle control group. Compound #8 was homogenized and dispersed using a mortar and a pestle in 0.2% hydroxypropylmethylcellulose (HPMC) in distilled water, which served as the vehicle. As a positive control, Clobazam (32 mg/kg p.o.), was administered under the same experimental conditions. […]
(§1) Data were analyzed by comparing groups treated with compound #8 with groups treated with vehicle control using unpaired Student's t tests.

[2] = system: Male Rj:NMRI mice; test: Elevated Plus Maze, Mouse (EPM); format: in vivo; details: 16 mg/kg p.o. (positive control)
Source text: Rodents avoid open spaces (in the case of the assay apparatus, the open arms of an elevated plus-maze). Compounds which have anti-anxiety activity increase exploratory activity of the rodents in the open arms of the elevated plus-maze. The EPM assay was run according to the procedure as described by Handley and Mithani (Naunyn. Schmied. Arch. Pharmacol., 327, 1-5, 1984).
Male Rj:NMRI mice, weighing 20-30 g (max. range per experiment=5 g) at the beginning of the experiments, were obtained from Elevage Janvier, 53940 Le Genest-Saint-Isle, France and used in the assay. The animals were delivered to the laboratory at least 5 days before the experiments during which time they were acclimatized to laboratory conditions. The mice were housed in groups of 10 in Macrolon cages (25×19×13 cm) on wood litter (Litalabo—SPPS, 95100 Argenteuil, France) with free access to food (Code 113—SAFE, 89290 Augy, France) and water until tested (or as indicated otherwise). The animal house was maintained under artificial lighting (12 hours) between 7:00 and 19:00 in a controlled ambient temperature of 21±3° C., and relative humidity between 30-80%.
The elevated plus-maze consisted of 4 arms of equal length and width (14×5 cm) arranged in the form of a plus sign (+). Two opposite arms were enclosed by 12 cm high walls (closed arms). The 2 other arms had no walls (open arms). The maze was raised 56 cm above the floor. A mouse was placed in the centre of the plus-maze and left to explore the maze for 5 minutes. The number of entries into the open and closed arms and the time spent in the open arms was recorded. Ten (10) mice were used for each study group. The test was performed blind.
Compound #8 was evaluated at 30 mg/kg, 60 mg/kg and 120 mg/kg doses, administered p.o. 60 minutes before the test, and compared with a vehicle control group. Compound #8 was homogenized and dispersed using a mortar and a pestle in 0.2% hydroxypropylmethylcellulose (HPMC) in distilled water, which served as the vehicle. As a positive control, Clobazam (16 mg/kg p.o.), was administered under the same experimental conditions. Clobazam as URBANYL® tablets (16 mg/kg p.o.) were dispersed in 0.2% hydroxypropylmethylcellulose (HPMC) in distilled water for administration. Each experiment therefore included 5 study groups of 10 mice each.
as §1

[3] = same experimental conditions, 10 mice

Compound `NS(=O)(=O)NCC1CCc2ccccc2O1` (stereo not drawn) has a melting point of 100 to 101 °C.

In the case of `CN1C(=O)CC(=O)N(c2ccccc2)c2cc(Cl)ccc21` [CLOBAZAM, Clobazam], the “Number of Punished Crossings, Mean ± S.E.M.” value [1, 3] is reported as 9.9 ± 1.2 (***), the “Number of Punished Crossings, % Change” value ([1]; change from vehicle control) is reported as “+154%” and the “Closed Arms Number of Entries, Mean ± S.E.M.” value [2, 3] is reported as 11.9 ± 1.5 (*). For the same compound, the “Open Arms Number of Entries, Mean ± S.E.M.” value [2, 3] was 11.7 ± 1.1 (***), the “Open Arms Time Spent (sec), Mean ± S.E.M.” value [2, 3] was 120.1 ± 13.1 s and the “Closed Arms Number of Entries, % change” value ([2]; change from vehicle control) was “+59%”. For the same compound, the “Open Arms Number of Entries, % change” value ([2]; change from vehicle control) was “+350%” and the “Open Arms Time Spent, % change” value ([2]; change from vehicle control) was “+567%”.
